Experimental findings from ChEMBL document CHEMBL1201862, “PubChem BioAssay data set” (2004) are described below.

Common to all, as to assay: NCI anticancer screen, dose series, 48 h
The test system of assay [1] is CAKI-1.
Assay [2] concerns OVCAR-3.
Assay [3] deals with HCT-15.
Assay [4] concerns MOLT-4.
Assay [5] relates to SK-MEL-28.
The subject of assay [6] is COLO 205.
For assay [7], the system named is SF-295.
For assay [8], the system named is HL-60.
Assay [9] has as its system HOP-62.
Assay [10] relates to SNB-19.
Assay [11] relates to RPMI-8226.
Assay [12] deals with HCC 2998.
The subject of assay [13] is HT-29.
The subject of assay [14] is UO-31.
Assay [15] deals with SF-539.
The subject of assay [16] is SNB-75.
Assay [17] relates to HOP-92.

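Compound exposure: 48 hours, 5 concentrations, 96-well plates. Here, GI50 denotes the concentration required for 50% inhibition of growth.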 Active and inactive are the calls of the source. No stated cut-off is given here; in the data, active = GI50 up to about 1.1 µM and inactive = higher.

Turning to `Cc1ccc(NC(=O)SCCC(=O)O)cc1NC(=O)SCCC(=O)O`, the GI50 is > 100 µM (inactive) in assay [1]; > 100 µM (inactive) in assay [2]; more than 100 µM in [3]; > 100 µM (inactive) in [4]; > 100 µM (inactive) in [5]; > 10 µM (inactive) in assay [6]. The GI50 in assay [7], in assay [8], in assay [9], in assay [10], in assay [11] and in [12] was > 100 µM (inactive) throughout. The GI50 in assay [13], in assay [14] and in assay [15] was > 100 µM (inactive) throughout.
For `CC(C)c1cccc(C(C)C)c1NC(=O)C(=O)C1SC(=S)NC1=O` (centres undefined), the GI50 in assay [1] is > 100 µM (inactive); in [3], more than 100 µM; in assay [4] it was > 100 µM (inactive); in assay [5] it was > 100 µM (inactive); in assay [6] it was > 100 µM (inactive); in [7] it was > 100 µM (inactive). Besides, the GI50 in assay [8], in assay [9], in assay [16], in [10], in assay [11] and in assay [17] was > 100 µM (inactive) each time. The GI50 in [13], in assay [14] and in assay [15] was > 100 µM (inactive) each time.
In the case of `COC(=O)NN1C(C)=C(C(=O)OC)C2(C#N)C(C(=O)OC)=C(C)N(NC(=O)OC)C12N` (centres undefined), the GI50 in [1] was > 100 µM (inactive); in assay [3], more than 100 µM; in [4] it was > 100 µM (inactive); in assay [5] it was > 100 µM (inactive); in assay [6] it was > 100 µM (inactive); in assay [8], > 100 µM (inactive). Moreover, the GI50 in assay [9], in assay [10], in [11], in [17], in assay [12] and in assay [13] was > 100 µM (inactive) in each case. Also, the GI50 in assay [14] and in assay [15] was > 100 µM (inactive) throughout.
On to `O=c1cccccc1NCCCCCCCNc1cccccc1=O`, for which the GI50 in assay [1] was 45.6 µM (inactive); in [2], 24.5 µM (inactive); in assay [3], 35.2 µM; in assay [4] it was 17 µM (inactive); in assay [6], 40.1 µM (inactive); in [7] it was 34 µM (inactive). Besides, the GI50 was 11.1 µM (inactive) in assay [8]; > 100 µM (inactive) in assay [9]; 95.9 µM (inactive) in [16]; 33.7 µM (inactive) in [10]; 13.8 µM (inactive) in assay [11]; 41.6 µM (inactive) in assay [17]. The GI50 in assay [13] was 55.5 µM (inactive); in assay [14] it was 25.3 µM (inactive); in [15], 91.4 µM (inactive).
Regarding `C=CCNC(=S)N1c2ccccc2NC(=O)CC1C` (centres undefined), the GI50 in assay [2] was > 100 µM (inactive); in [3], more than 100 µM; in [4], > 100 µM (inactive); in assay [5], > 100 µM (inactive); in assay [6], > 100 µM (inactive); in [7] it was > 100 µM (inactive). In addition, the GI50 in assay [8] is > 100 µM (inactive); in assay [9] it was > 100 µM (inactive); in [16] it was 54.6 µM (inactive); in assay [10] it was > 100 µM (inactive); in assay [11] it was > 100 µM (inactive); in [13], > 100 µM (inactive). The GI50 in assay [14] and in [15] was > 100 µM (inactive) throughout.
Take `CCNC(=O)O/N=C1/C=C2CC[C@@H]3C(CC[C@@]4(C)C3CC[C@@H]4OC(=O)NCC)[C@@]2(C)CC1` (some centres undefined): the GI50 is 4.26 µM (inactive) in [1]; 2.77 µM in assay [3]; 2.36 µM (inactive) in assay [4]; 3.32 µM (inactive) in assay [5]; 2.44 µM (inactive) in [6]; 2.41 µM (inactive) in [7]. Further, the GI50 is 11.4 µM (inactive) in assay [9]; 2.09 µM (inactive) in assay [16]; 2.48 µM (inactive) in assay [10]; 2.52 µM (inactive) in assay [11]; 4.43 µM (inactive) in assay [17]; 4.3 µM (inactive) in assay [12]. Moreover, the GI50 in assay [13] was 3.27 µM (inactive); in assay [14] it was 1.78 µM (inactive); in assay [15] it was 4.32 µM (inactive).
Take `OC[C@@H]1CC#C/C=C\C#CC[C@@H]1CO`: the GI50 was > 100 µM (inactive) in assay [1]; > 100 µM (inactive) in assay [2]; more than 100 µM in assay [3]; > 100 µM (inactive) in [4]; > 100 µM (inactive) in assay [5]; > 100 µM (inactive) in [6]. In addition, the GI50 is > 100 µM (inactive) in assay [7]; > 100 µM (inactive) in assay [8]; > 100 µM (inactive) in [9]; > 100 µM (inactive) in assay [10]; > 100 µM (inactive) in assay [11]; < 0.01 µM (active) in [17]. For the same compound, the GI50 in assay [12], in [13], in assay [14] and in assay [15] was > 100 µM (inactive) throughout.
Regarding `C/N=C(\SC)N(C)c1nc(=[N+](C)C)ss1.[O-][Cl+3]([O-])([O-])[O-]`, the GI50 in assay [1] was 52 µM (inactive); in [3] it was more than 100 µM; in assay [4], 9.53 µM (inactive); in [5], > 100 µM (inactive); in [7], > 100 µM (inactive); in [8], 7.38 µM (inactive). The GI50 in [9] was > 100 µM (inactive); in assay [16], 3.81 µM (inactive); in [10], > 100 µM (inactive); in assay [17], > 100 µM (inactive); in [12] it was > 100 µM (inactive); in [13], 4.22 µM (inactive). Besides, in assay [14], the GI50 is 42.2 µM (inactive).
For the compound `N=C(N)N/N=C(/CCN1CCCC1)CC(c1ccccc1)c1c(O)c2ccccc2oc1=O` (centres undefined), the GI50 in assay [1], in assay [2], in [5], in assay [6], in assay [7] and in [9] was > 100 µM (inactive) throughout. In addition, the GI50 in assay [16] was > 100 µM (inactive); in [10], > 100 µM (inactive); in [11], > 100 µM (inactive); in [17] it was 16.7 µM (inactive); in [12], > 100 µM (inactive); in assay [13] it was > 100 µM (inactive). In addition, the GI50 in assay [15] was > 100 µM (inactive).
Consider `Cc1[nH]c2ccccc2c1CC/C(=N\Nc1ccccc1)c1ccccc1`, for which the GI50 is > 100 µM (inactive) in [1]; > 100 µM (inactive) in [2]; more than 100 µM in assay [3]; > 100 µM (inactive) in assay [4]; > 100 µM (inactive) in [5]; 94.6 µM (inactive) in assay [7]. Besides, the GI50 in [8] is > 100 µM (inactive); in assay [9] it was > 100 µM (inactive); in assay [16], 28.7 µM (inactive); in assay [11], > 100 µM (inactive); in [12], > 100 µM (inactive); in assay [13], > 100 µM (inactive). The GI50 in assay [14] and in assay [15] was > 100 µM (inactive) in each case.
On to `CCOC(=O)/C(=C/c1ccc(OC)c(OC)c1)C(=O)c1ccccc1`, for which the GI50 in [1] is 14.7 µM (inactive); in assay [2], 18 µM (inactive); in assay [3], 15.1 µM; in [4] it was 17.5 µM (inactive); in [5], 13.5 µM (inactive); in assay [6], 16.9 µM (inactive). The GI50 in [7] was 21.2 µM (inactive); in assay [9], 19.5 µM (inactive); in [16], 12.4 µM (inactive); in assay [10], 15.8 µM (inactive); in assay [11], 10.5 µM (inactive); in assay [12] it was 18.3 µM (inactive). Moreover, the GI50 in assay [13] was 13.6 µM (inactive); in assay [14], 14.4 µM (inactive).
Consider `C#CC[C@]12CC(=O)CC[C@H]1CC(=O)C2`, for which the GI50 in assay [1] was > 100 µM (inactive); in assay [2], > 100 µM (inactive); in assay [3], more than 100 µM; in [4], > 100 µM (inactive); in [5] it was > 100 µM (inactive); in assay [6] it was > 100 µM (inactive). Further, the GI50 in [8], in assay [9], in assay [16], in [10], in assay [11] and in [12] was > 100 µM (inactive) throughout. Also, the GI50 in [14] and in assay [15] was > 100 µM (inactive) in each case.
Take `Cc1ccc(Oc2ccccc2N)cc1`: the GI50 is 15.8 µM (inactive) in assay [2]; 19.5 µM in assay [3]; 15.4 µM (inactive) in assay [4]; 18.2 µM (inactive) in assay [5]; 6.07 µM (inactive) in assay [6]; 37.6 µM (inactive) in assay [7]. Further, the GI50 in [8] was 10.4 µM (inactive); in assay [9], 39 µM (inactive); in [16], 16 µM (inactive); in assay [10] it was 78.5 µM (inactive); in assay [11], 33.7 µM (inactive); in [17], 37.8 µM (inactive). Also, the GI50 is 15.4 µM (inactive) in assay [12], 37.2 µM (inactive) in [13], 12.4 µM (inactive) in assay [14] and 16.7 µM (inactive) in [15].
For `CN(C)CC1CCCC/C1=N/OC(=O)c1ccc(Cl)cc1` (centres undefined), the GI50 in assay [1] is > 100 µM (inactive); in [2] it was > 100 µM (inactive); in assay [3] it was more than 100 µM; in assay [4], > 100 µM (inactive); in [5], > 100 µM (inactive); in assay [6], > 100 µM (inactive). In addition, the GI50 in assay [7], in [8], in assay [9], in [16], in assay [11] and in assay [17] was > 100 µM (inactive) each time. For the same compound, the GI50 in [12], in assay [13], in assay [14] and in [15] was > 100 µM (inactive) throughout.
